Key:
[1] = tested on: Rat Limb Bones (PTH induced bone resorption); test: Bone Resorption Assay: 45Ca Release from Rat Limb Bones (PTH Induced); type: cell-based, rat (Sprague-Dawley CD)
Method: The purpose of this assay is to identify compounds that inhibit basal or stimulated bone resorption in culture.
The ability of 2-substituted-imidazo[4,5-c]pyridines to modify the process of bone resorption was evaluated essentially as described by L.G. Raisz, Bone resorption in tissue culture. Factors influencing the response to parathyroid hormone.
Timed pregnant Sprague-Dawley CD® rats (Charles River) are administered 100 μCi ^45 CaCl2 (NEN calcium -45 NEZ-013) in 100 μL of 0.9% saline, subcutaneously, on day 18 of gestation. The rats are sacrificed the following day by CO2 asphyxiation. The fetuses are removed and the right forelimbs excised and placed in a Petri dish containing ice cold explant medium consisting of modified BGJb -Fitton Jackson media (custom formulation, Gibco No. 78-0088) adjusted to pH 7.3 to which 10 mM TES is added. […] Under a dissecting microscope, the bones are gently cleaned of adherent tissue and the cartilaginous ends removed. Incubation and drug treatment. […] The preincubation medium is brought to 37° C. prior to transfer of bones. The preincubation medium consists of the modified BGJb medium (with salts and glucose as above), pH 7.3, containing 29 mM NaHCO3. […] For compounds that require nonaqueous solvents, dilutions are made from the appropriate stock solution with medium. In these instances, basal and bone resorption stimulated controls exposed to an equivalent concentration of the vehicle are included. […] The right ulna and radius from each fetus are used. Both bones are subjected to the same treatment and each treatment group consists of bones from 4 or more fetuses. Treatments are randomly assigned using a preclinical statistics program (PS-ALLOC). After a 48 hour incubation at 37° C. in 5% CO2, the bones are removed from the medium and extracted in 0.5 mL of 0.1N HCl for 1 or more days. Duplicate 150 μL aliquots of the incubation medium and the bone extract are analyzed for ^45 Ca radioactivity in 5 mL of liquid scintillation cocktail.
The percentage of bone ^45 Ca released into the medium is determined as follows: [formula] […]

[2] = tested on: Rat Limb Bones (basal bone resorption); test: Basal Bone Resorption Assay: 45Ca Release from Rat Limb Bones; type: cell-based
From the text: The purpose of this assay is to test stimulators and inhibitors of bone resorption in vitro. The release of ^45 Ca from in vitro labeled murine bone explants into the culture media is taken as an index of bone resorption.
Rat pups are labelled […] by injecting pregnant dams (18 days) with 100 μCi of ^45 Ca.
Two days after the initiation of labelling, the dam is anesthetized with halothane and killed by cervical dislocation. The pups are ablated and quickly decapitated. The calvaria (frontal and parietal bones), forelimbs (containing radii and ulnae), and hind limbs (tibiae) are removed and placed in control media in a petri dish. Bones are debrided of soft tissue by a combination of blunt dissection, and gentle rolling on bibulous paper, taking care not to disturb the periosteum. Cartilaginous ends are cut off long bones. Calvaria are cut in half along midline suture. Bones are separated into 3 categories: calvaria halves, Tibiae and ulnae/radii. Groups of eight (per bone group) are randomly placed in 24-well culture plates containing 0.5 mL of control media. Cultures are maintained at 37° C. in a humidified incubator of 95% air: 5% CO2.
These bones are incubated for 24 hours, media is aspirated from the bones and replaced with fresh media containing test substances. Each bone group has a control group of 8 and a dead bone group of 8. The devitalized cultures are obtained by heating the bones in medium at 55° C. for 60 minutes. The bones are incubated at 37° C. for an additional 72 hours. At the end of this period a 100 microliter aliquot of media is removed and placed in a scintillation vial. Ten mL of Aquasol is added, the ^45 Ca is quantified in a scintillation spectrometer. Bones are rinsed in saline, placed in a scintillation vial, hydrolyzed overnight in 0.75 mL 6N HCl at room temperature. The hydrolyzed bone solution is neutralized by the addition of 2.25 mL of 2N NaOH, followed by 10 mL of Aquasol, the ^45 Ca content is determined by scintillation spectrometry.
Analysis: ^45 Ca release into culture medium from the 24-96 hour period is individually compared to ^45 Ca release in control cultures and to devitalized bone via Dunnett's test. […]

[3] = tested on: osteopenia induced by denervation of the sciatic nerve in rats; test: Denervation Induced Osteopenia in Rats; type: in vivo, rat (female Sprague Dawley CD)
From the text: The purpose of this assay is to evaluate the effect, in rats, of agents on the reduction in bone mass (osteopenia) induced by immobilization resulting from surgical severance (denervation) of the sciatic nerve.
The animals are housed in plastic cages (4 or 5 rats/cage) with food (rat purina 500 chow) and water ad libitum; 14/10 day/night cycle.
After one week of in-house acclimatization, the animals are randomly divided into groups of 6 to 10 rats/group. Each rat is weighed, anesthetized with an intraperitoneal administration of 100 mg/kg ketamine (Bristol Laboratories, Syracuse, N.Y.) and 0.75 mg/kg Acepromazine (Aveco, Ft. Dodge, Iowa). The left hind limb is shaved and denervated by making a lateral incision parallel to the femur and by surgically removing half of a centimeter of the sciatic nerve adjacent to caudofemoralis and adductor brevis muscles. The incision is closed with wound clips. After surgery, the rats are housed in cages with absorbent bedding to minimize additional trauma to the immobilized limb. A 24 hour post-surgery recovery period is allowed before the initiation of the drug treatment.
The concentration of the drug stock is calculated to be delivered in a volume of 0.1 mL/100 gram body weight. The drug solution or a uniform suspension is prepared in 1% Tween 80 in normal saline. The drugs are administered via oral or parenteral routes daily (five times a week) for four weeks.
A sequential triple labeling of mineralized tissue is employed to determine the osseous changes (especially the bone formation) and the mineralization rates. Each animal is administered 90 mg/kg Xylenol orange (Fisher Scientific Company), S.C., 15 mg/kg Calcein (Sigma Chemical Company), S.C. and 15 mg/kg Demeclocycline (Sigma Chemical Company), i.p., approximately 21 days, 10 days and 2 days prior to the termination of the study, respectively.
At the end of the fourth week, each rat is weighed, anesthetized with an intraperitoneal administration of 100 mg/kg ketamine with 0.75 mg/kg Acepromazine and approximately 4 mL of blood collected via cardiac puncture. The anesthetized rats are euthanized by exposure to carbon dioxide. The femora and tibiae from both limbs are dissected free of soft tissue. (i) Femora are ashed at ~1100° C. for 16 hours using a muffle furnace. --(ii) Proximal tibia are fixed, dehydrated and embedded undecalcified in a methyl methacrylate-glycol methacrylate mixture. Longitudinal tissue sections (10 microns) are prepared on a Polycut S microtome (Reichert). Staining is performed on free-floating sections using a modified Goldner's stain, which are then mounted and coverslipped.
Cancellous bone content in the proximal tibia is quantified (as two dimensional bone mineral area [B.Ar]) with an image analysis processing device (software developed by Drexel University).
The areas of the tibia selected for cancellous bone content evaluation are the primary and secondary spongiosa. To select and standardize this area for evaluation, the epiphyseal growth plate-metaphyseal junction is oriented parallel to the abscissa of the digitizing screen. Bone elements 1.7 mm (secondary spongiosa) and 0.2 mm (primary spongiosa) from the growth plate and equidistant from the flanking cortical elements are then quantified as described above. The total area evaluated is 2.30 mm wide and 1.45 mm deep, constituting a 3.34 mm^2 area.
Body weight, femur mass (dried or ashed) and trabecular (cancellous) bone mineral area (B.Ar) are determined.
The difference (both absolute and percent change) in femur mass and bone mineral area between intact (control) and denervated limbs of a treatment group are compared with that for the vehicle group using a one-way analysis of variance with Dunnett's test, or other multiple comparison methods.
The results are reported in Table I and II under the heading In Vivo.

[4] = Table I, concentration not given

Row | Compound | Inhibition of Bone Resorption, PTH Induced ([1]; Table I, 10 μg/mL) | Inhibition of Bone Resorption, In Vivo ([3]; po, 672 h) | Inhibition of Bone Resorption, PTH Induced ([1]; Table II, 10 μg/mL) | Inhibition of Bone Resorption, Basal ([2]; Table II, 10 μg/mL) | other results
1 | [O-][S+](Cc1ccc(F)c(F)c1)c1nc2cnccc2[nH]1 (centres unmarked) [Example 31, 2-[[(3,4-Difluorophenyl)methyl]sulfinyl]-1H-imidazo[4,5-c]-pyridine-One Tenth Hydrate] | Active | Inactive |  |  | Inhibition of Bone Resorption, Basal ([2]; Table I, 10 μg/mL): Active
2 | c1ccc(COc2cccc(CSc3nc4cnccc4[nH]3)c2)cc1 [Example 22, 2-[[[3-(Phenylmethoxy)phenyl]methyl]thio]-1H-imidazo[4,5-c]pyridine] |  |  | Active | Inactive | 
3 | [O-][S+](Cc1ccc(Cl)c(Cl)c1)c1nc2cnccc2[nH]1 (centres unmarked) [Example 6, 2-[[(3,4-Dichlorophenyl)methyl]sulfinyl]-1H-imidazo[4,5-c]pyridine] | Active |  |  |  | Inhibition of Bone Resorption, Basal ([2]; Table I, 10 μg/mL): Active
4 | [O-][S+](Cc1cc2c(cc1Cl)OCO2)c1nc2cnccc2[nH]1 (centres unmarked) [Example 25] | Active | Inactive |  |  | Inhibition of Bone Resorption, Basal ([2]; Table I, 10 μg/mL): Active
5 | [O-][S+](Cc1cccc(C(F)(F)F)c1)c1nc2cnccc2[nH]1 (centres unmarked) [Example 8, 2-[[[3-(Trifluoromethyl)phenyl]methyl]-sulfinyl]-1H-imidazo[4,5-c]pyridine] | Active |  |  |  | Inhibition of Bone Resorption, Basal [2, 4]: Inactive
6 | COc1cccc(CSc2nc3cnccc3[nH]2)c1 [Example 2, 2-[[(3-Methoxyphenyl)methyl]thio]-1H-imidazo[4,5-c]pyridine] |  |  | Inactive | Inactive | Inhibition of Bone Resorption, In Vivo ([3]; Table II, 25 mg/kg, i.p.): Active
7 | [O-][S+](CCc1ccccc1)c1nc2cnccc2[nH]1 (centres unmarked) [Example 14, 2-[(2-Phenylethyl)sulfinyl]-1H-imidazo[4,5-c]pyridine] | Active |  |  |  | Inhibition of Bone Resorption, Basal ([2]; Table I, 10 μg/mL): Active
8 | COc1cc(C[S+]([O-])c2nc3cnccc3[nH]2)cc(OC)c1OC (centres unmarked) [Example 29, 2-[[(3,4,5-Trimethoxyphenyl)methyl]sulfinyl]-1H-imidazo[4,5-c]pyridine-One Third Hydrate] |  | Inactive |  |  | Inhibition of Bone Resorption, PTH Induced [1, 4]: Inactive
9 | c1ccc(CSc2nc3cnccc3[nH]2)cc1 [Example 11, 2-[[(Phenyl)methyl]thio]-1H-imidazo[4,5-c]pyridine] |  |  |  | Inactive | 
10 | Clc1ccc(CSc2nc3cnccc3[nH]2)cc1Cl [Example 5, 2-[[(3,4-Dichlorophenyl)methyl]thio]-1H-imidazo[4,5-c]pyridine] |  |  |  | Inactive | 
11 | c1ccc(CCSc2nc3cnccc3[nH]2)cc1 [Example 13, 2-[(2-Phenylethyl)thio]-1H-imidazo[4,5-c]pyridine] |  |  | Inactive | Inactive | 
12 | COc1cccc(CCSc2nc3cnccc3[nH]2)c1 [Example 16, 2-[[(3-Methoxyphenyl)ethyl]thio]-1H-imidazo[4,5-c]pyridine] |  |  | Inactive |  | Inhibition of Bone Resorption, In Vivo ([3]; Table II, 25 mg/kg, p.o.): Inactive
13 | FC(F)(F)c1cccc(CSc2nc3cnccc3[nH]2)c1 [Example 7, 2-[[[3-(Trifluoromethyl)phenyl]methyl]thio]-1H-imidazo[4,5-c]pyridine] |  |  |  | Active | 
14 | Fc1cccc(Cl)c1CSc1nc2cnccc2[nH]1 [Example 9, 2-[[(2-Chloro-6-fluorophenyl)methyl]thio]-1H-imidazo[4,5-c]pyridine] |  |  | Inactive | Inactive | 
15 | COc1ccc(C[S+]([O-])c2nc3cnccc3[nH]2)cc1 (centres unmarked) [Example 27, 2-[[(4-Methoxyphenyl)methyl]sulfinyl]-1H-imidazo[4,5-c]-pyridine-One Third Hydrate] | Active | Inactive |  |  | 
16 | Fc1cc(Br)ccc1CSc1nc2cnccc2[nH]1 [Example 20, 2-[[(4-Bromo-2-fluorophenyl)methyl]thio]-1H-imidazo[4,5-c]pyridine] |  |  | Active | Inactive | 
17 | N#Cc1ccccc1C[S+]([O-])c1nc2cnccc2[nH]1 (centres unmarked) [Example 39, 2-[[(1H-Imidazo[4,5-c]pyridin-2-yl)sulfinyl]methyl]benzonitrile] | Active | Inactive |  |  | 
18 | COc1cc(C[S+]([O-])c2nc3cnccc3[nH]2)cc(OC)c1 (centres unmarked) [Example 45, 2-[[(3,5-Dimethoxyphenyl)methyl]sulfinyl]-1H-imidazo[4,5-c]pyridine] | Active | Inactive |  |  | 
19 | Fc1ccccc1CSc1nc2cnccc2[nH]1 [Example 40, 2-[[(2-Fluorophenyl)methyl]thio]-1H-imidazo[4,5-c]pyridine] |  |  | Active |  | Inhibition of Bone Resorption, In Vivo ([3]; Table II, 25 mg/kg, route not given): Inactive

Reference: US5081253A, “Imidazo(4,5-C)pyridines as antiosteoporotic agents” (American Home Products Corporation, priority 1990, dated 1992)
